What was measured:
[1] = biological target: rPtxS1 (recombinant pertussis toxin S1 subunit, wild type) (Bordetella pertussis, UniProt P04977); experiment: fluorometric NAD+ consumption assay; format: biochemical
[2] = biological target: pertussis AB5 holotoxin (PtxS1-S5) (Bordetella pertussis, UniProt P04977); experiment: cell-based
Chain of pertussis AB5 holotoxin (PtxS1-S5) (P04977 whole entry, looked up): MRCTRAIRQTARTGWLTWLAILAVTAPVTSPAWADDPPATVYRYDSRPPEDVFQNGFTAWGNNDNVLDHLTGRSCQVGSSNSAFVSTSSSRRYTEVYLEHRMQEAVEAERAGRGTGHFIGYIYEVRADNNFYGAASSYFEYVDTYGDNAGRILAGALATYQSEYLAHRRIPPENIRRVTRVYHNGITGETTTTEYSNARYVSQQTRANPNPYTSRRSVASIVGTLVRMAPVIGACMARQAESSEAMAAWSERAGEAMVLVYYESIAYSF

Chain of rPtxS1 (recombinant pertussis toxin S1 subunit, wild type) (P04977 35-221 limits assumed): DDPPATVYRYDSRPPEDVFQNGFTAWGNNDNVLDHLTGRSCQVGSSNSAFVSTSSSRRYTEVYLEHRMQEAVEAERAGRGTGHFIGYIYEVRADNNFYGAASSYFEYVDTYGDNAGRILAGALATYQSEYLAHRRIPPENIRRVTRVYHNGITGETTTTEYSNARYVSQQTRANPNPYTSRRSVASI

With `Sc1nc2c[nH]c(S)nc-2n1` [NSC29193, purine-2,8-dithiol] as the compound, how does the IC50 [1] read?
The IC50 was 6.8 µM.

With `O=C(/C=C/c1cccnc1)/C=C/c1cccnc1` [NSC149286] as the compound, how does the IC50 [1] read?
The IC50 was 20 µM.

What does the source list for `O=[N+]([O-])c1ccc(Sc2cccc[n+]2[O-])c2nonc12` [NSC228155, 7-nitro-4-(1-oxidopyridin-1-ium-2-yl)sulfanyl-2,1,3-benzoxadiazole]?
IC50 [1]: 3 µM; IC50 [2]: 2.35 µM

From publication doi:10.1101/637801v3 (biorxiv, 2019)
